One series relates to Progesterone Receptors. As to the kind of experiment: Inhibition of 3H-Progesterone Binding to the Bovine Uteral Progesterone Receptors. The note with it: competitor 10^−6M; 3H-progesterone 0.15 nM.
Series [1] has as its system metrazol induced convulsions. As to the kind of experiment: Antimetrazol activity in mice. The note with it: Mus musculus; steroid i.p., convulsant s.c., 50% hydroxypropyl-β-cyclodextrin. The series is classed as in vivo. A digest of the protocol:
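Mice dosed with test compounds at various doses 10 minutes before metrazol (85 mg/kg) injection. Each animal observed for 30 minutes, recording time to onset of myoclonus (forelimb clonic activity).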

Series [2] is described as follows: Rotorod test (general CNS depression potential). Details: species or system mice. As to conditions: mouse, in vivo, ip, 50% hydroxypropyl-β-cyclodextrin. An excerpt: (§1) The anticonvulsant tests are similar to that described above.
Series [3] deals with maximal electroshock tonic seizure. As to the kind of experiment: Maximal electroshock test. As to conditions: Mus musculus, ip, 50% hydroxypropyl-β-cyclodextrin. The series is classed as in vivo, mice.
From the text: as §1
Background: The maximal electroshock test induces tonic seizures with an electrical stimulus.

In series [4] the test system is BIC (bicuclline) convulsions. In words: Chemical convulsant test, BIC. The format is in vivo, mice. The note with it: Mus musculus; steroid i.p., convulsant s.c., 50% hydroxypropyl-β-cyclodextrin.
From the text: as §1

Another series has as its system TBPS. In words: Chemical convulsant test, column TBPS. The series is classed as in vivo, mice. The note with it: Mus musculus, read-out: ED50 TBPS.
From the text: as §1

For series [5], the system named is STR (strychnine) convulsions. As to the kind of experiment: Chemical convulsant test, strychnine. The series is classed as in vivo, mice. The note with it: Mus musculus, read-out: ED50 STR.
From the text: as §1

The test system of another series is hormonal activity. As to the kind of experiment: Hormonal activity in vivo. Details: species or system animals. From the text: Thus, they wil not have the hormonal side-effects which would be associated with binding to such steroid receptors.

The text below walks through data of patent US6780853B1, “Neuroactive steroids of the androstane and pregnane series” (priority 1995, dated 2004).

By ED50 is commonly meant the midpoint of the dose-response relation. Consider `CC(=O)[C@H]1CC[C@H]2[C@@H]3CC[C@H]4C[C@](C)(O)CC[C@]4(C)[C@H]3CC[C@]12C` [5α-pregnan-3α-ol-3β-methyl-20-one, 3α-hydroxy-3β-methyl-5α-pregnan-20-one], for which the “% of Inhibition” value in the series with Progesterone Receptors stood at 4%. Moreover, the ED50 is 4.3 mg/kg in series [1]; 29.7 mg/kg in series [3]; 4.6 mg/kg in series [4]; 11.7 mg/kg in the series with TBPS; over 40 mg/kg in series [5]. In series [2], this compound registered an ED50 at 10 min of 33.4 mg/kg. In addition, the “hormonal activity when given to animals in vivo” value in the series on hormonal activity is recorded as “not to have any hormonal activity”.
